The results in this text go back to patent US20100286250A1, “FLUORINATED LIPIDS AND METHODS OF USE” (TUFTS UNIVERSITY, priority 2007, published 2010).

In the assay the test system is HeLa cells. Description: Fluorescence assay of HeLa cells incubated with lipid conjugates (microtiter plate reader). The assay is classed as cell-based. Conditions: preformed complexes, washed with PBS. The method, then: General Procedure for Incubation of Cells with Compounds: Cells were cultured in DMEM/RPMI medium supplemented with 10% fetal bovine serum and 1% penicillin/streptomycin. Cells were suspended in phosphate buffered saline (PBS), incubated with an ethanolic solution of lipid conjugates for 1-2 h at 4 or 37° C. to give a final concentration in each well of 0.01-100 μM in a total volume of 100 μL (10% EtOH). After the incubation period, cells were pelleted by centrifugation and washed (2×) and resuspended in 100 μL PBS and analyzed.
ATP Depletion: Cells were pretreated with 4 mM NaN3/0.8 mM NaF in 100 μL PBS for 30 m at 37° C. The cells were then washed with PBS (2×100 μL) and incubated with 100 μM ethanolic solutions of lipids for 2 h (total volume 100 μL, 10% EtOH). Analysis was carried out as described previously.
Incubation under Hypertonic Conditions: Cells were pretreated with 0.3 M sucrose for 30 min at 37° C. in PBS, and were then incubated with lipid solutions. Analysis was carried out as described previously.
Fluorescence Assay: After the incubation period, HeLa cells in PBS were analyzed using an Infinite™ 200 series microtiterplate reader (Tecan Systems, Inc.). All experiments were carried out in 96 well plates with six replicates. The plates were pretreated with 1% BSA for 12 h at 4° C. to minimize non-specific binding.

For “AF: avidin conjugated to fluorescein isothiocyanate [reference compound]”, the “delivery of AF into the cell (microscopy or fluorescence counting)” value is recorded as “minimally fluorescent”.
